Measurements taken from patent US9221834B2 (Merck Sharp & Dohme Corp., priority 2010, dated 2015).
Counter-ions that a name gives are not always drawn.

What follows are molecules tested against T1, recombinant CETP (rCETP) (Homo sapiens, UniProt P11597) (assay: RTA assay using recombinant CETP (2% RTA)). Conditions: RTA assay in 2% human serum; read-out: IC50.
T1 sequence (P11597 18-493): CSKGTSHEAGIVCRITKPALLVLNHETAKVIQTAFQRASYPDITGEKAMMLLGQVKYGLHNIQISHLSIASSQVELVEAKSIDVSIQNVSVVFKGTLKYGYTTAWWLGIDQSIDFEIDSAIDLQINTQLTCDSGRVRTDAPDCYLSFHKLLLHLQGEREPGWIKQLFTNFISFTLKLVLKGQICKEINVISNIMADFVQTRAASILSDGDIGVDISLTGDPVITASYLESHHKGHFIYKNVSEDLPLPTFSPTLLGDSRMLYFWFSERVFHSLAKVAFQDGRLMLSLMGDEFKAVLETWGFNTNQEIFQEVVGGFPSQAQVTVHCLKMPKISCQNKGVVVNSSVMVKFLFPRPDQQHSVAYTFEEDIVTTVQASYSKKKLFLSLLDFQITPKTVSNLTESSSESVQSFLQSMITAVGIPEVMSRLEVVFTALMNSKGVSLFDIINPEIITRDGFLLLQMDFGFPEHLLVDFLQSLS
Assay type: biochemical
Method in brief: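 Compounds preincubated 1 h at 37 °C with assay cocktail (CETP buffer: 50 mM Tris pH 7.4, 100 mM NaCl, 1 mM EDTA; human HDL acceptor); transfer started with [3H]cholesteryl oleate- or [3H]triolein-labelled LDL, 60 min at 37 °C. LDL PEG-precipitated; supernatant counted by scintillation, blank-corrected; IC50 from 4-parameter sigmoidal fit of % inhibition vs DMSO control.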

Row | Structure (SMILES) | IC50
1 | CCOC(=O)[C@@H]1CC1c1ccc(OC)c(-c2cnc(N3CCC3)nc2CN2C(=O)O[C@H](c3cc(C(F)(F)F)cc(C(F)(F)F)c3)[C@@H]2C)c1 (stereo partly shown) [Example 124] | 33 nM
2 | COc1ccc([C@@H]2C[C@H]2C(N)=O)cc1-c1ccc(N2CCC2)nc1CN1C(=O)O[C@H](c2cccc(C(F)(F)F)c2)[C@@H]1C [Example 252] | 63 nM
3 | COc1ccc([C@H]2C[C@H](C(=O)OC)C2)cc1-c1ccc(N2CCC2)nc1CN1C(=O)O[C@H](c2cc(C(F)(F)F)cc(C(F)(F)F)c2)[C@@H]1C [Example 24] | 2 nM
4 | COc1ccc(-c2ccc(C(=O)O)nc2)cc1-c1ccc(N2CCC2)nc1CN1C(=O)O[C@H](c2cc(C(F)(F)F)cc(C(F)(F)F)c2)[C@@H]1C [Example 120] | 33 nM
5 | COc1cc(F)c(CCC(=O)O)cc1-c1ccc(N2CCC2)nc1CN1C(=O)O[C@H](c2cc(C(F)(F)F)cc(C(F)(F)F)c2)[C@@H]1C [Example 79] | 18 nM
6 | COc1ccc([C@H]2C[C@H](C(=O)O)C2)cc1-c1ccc(N2CC(F)(F)C2)nc1CN1C(=O)O[C@H](c2cccc(OC(F)(F)F)c2)[C@@H]1C [Example 295] | 114 nM
7 | COc1ccc([C@H]2C[C@@H](CC(=O)O)C2)cc1-c1ccc(N2CCC2)nc1CN1C(=O)O[C@H](c2cc(C(F)(F)F)cc(C(F)(F)F)c2)[C@@H]1C [Example 91] | 10 nM
8 | COC(=O)CCc1ccc(OC2CC2)c(-c2c(C)cc(N3CCC3)nc2CN2C(=O)O[C@H](c3cc(C(F)(F)F)cc(C(F)(F)F)c3)[C@@H]2C)c1 [Example 215] | 6 nM
9 | COc1ccc([C@H]2CC[C@H](C(=O)O)CC2)cc1-c1cnc(N2CC(F)(F)C2)nc1CN1C(=O)O[C@H](c2cc(C(F)(F)F)cc(C(F)(F)F)c2)[C@@H]1C [Example 157] | 10 nM
10 | CCOC(=O)CC1CCc2cc(OC)c(-c3ccc(N4CCC4)nc3CN3C(=O)O[C@H](c4cc(C(F)(F)F)cc(C(F)(F)F)c4)[C@@H]3C)cc21 (stereo partly shown) [Example 6] | 7 nM
11 | COc1ccc([C@@H]2CC[C@H](C(=O)O)C2)cc1-c1ccc(N2CCC2)nc1CN1C(=O)O[C@H](c2cc(C(F)(F)F)cc(C(F)(F)F)c2)[C@@H]1C (single isomer, unassigned) [Example 245] | 9 nM
12 | COc1ccc(-c2nc(C(=O)O)cs2)cc1-c1ccc(N2CCC2)nc1CN1C(=O)O[C@H](c2cc(C(F)(F)F)cc(C(F)(F)F)c2)[C@@H]1C [Example 115] | 285 nM
13 | COc1ccc([C@H]2CC[C@H](C(=O)OC)CC2)cc1-c1cnc(N2CCC2)nc1CN1C(=O)O[C@H](c2cc(C(F)(F)F)cc(C(F)(F)F)c2)[C@@H]1C [Example 125] | 60 nM
14 | COc1ccc([C@H]2C[C@@H](C(=O)OC)C2)cc1-c1c(C)cc(N2CCC2)nc1CN1C(=O)O[C@H](c2cc(C(F)(F)F)cc(C(F)(F)F)c2)[C@@H]1C (single isomer, unassigned) [Example 42] | 102 nM
15 | COC(=O)c1cc(-c2ccc(OC)c(-c3ccc(N4CCC4)nc3CN3C(=O)O[C@H](c4cc(C(F)(F)F)cc(C(F)(F)F)c4)[C@@H]3C)c2)c(C)s1 [Example 51] | 12 nM
16 | COc1cc(F)c(-c2ccc(C(=O)O)cc2C)cc1-c1ccc(N2CC(F)(F)C2)nc1CN1C(=O)O[C@H](c2cccc(OC(F)(F)F)c2)[C@@H]1C [Example 296] | 8 nM
17 | COc1ccc(C(C)(C)CC(=O)O)cc1-c1ccc(N2CCC2)nc1CN1C(=O)O[C@H](c2cccc(C(F)(F)F)c2)[C@@H]1C [Example 220] | 330 nM
18 | COC(=O)CC(C)(C)c1ccc(OC)c(-c2ccc(N3CCC3)nc2CN2C(=O)O[C@H](c3cc(F)c(F)c(F)c3)[C@@H]2C)c1 [Example 32] | 107 nM
19 | COc1ccc(Cc2nc[nH]n2)cc1-c1ccc(N2CCC2)nc1CN1C(=O)O[C@H](c2cc(C(F)(F)F)cc(C(F)(F)F)c2)[C@@H]1C [Example 265] | 23 nM
20 | COc1ccc(CC(N)=O)cc1-c1ccc(N2CCC2)nc1CN1C(=O)O[C@H](c2cc(C(F)(F)F)cc(C(F)(F)F)c2)[C@@H]1C [Example 254, 2-{3-[6-azetidin-1-yl-2-({(4S,5R)-5-[3,5-bis(trifluoromethyl)phenyl]-4-methyl-2-oxo-1,3-oxazolidin-3-yl}methyl)pyridin-3-yl]-4-methoxyphenyl}acetamide] | 15 nM
21 | COc1ccc(C2C[C@@H]2C(=O)O)cc1-c1cnc(N2CC(F)(F)C2)nc1CN1C(=O)O[C@H](c2cc(C(F)(F)F)cc(C(F)(F)F)c2)[C@@H]1C (stereo partly shown) [Example 163] | 14 nM
22 | COC(=O)CCc1ccc(OC)c(-c2ccc(N3CCC3)nc2CN2C(=O)O[C@H](c3cc(C(F)(F)F)cc(C(F)(F)F)c3)[C@@H]2C)c1 [Example 1, Methyl 3-{3-[6-azetidin-1-yl-2-({(4S,5R)-5-[3,5-bis(trifluoromethyl)phenyl]-4-methyl-2-oxo-1,3-oxazolidin-3-yl}methy)pyridin-3-yl]-4-methoxyphenyl}propanoate] | 8 nM

Row | Structure (SMILES) | IC50
23 | COc1ccc(CCC(=O)N2CCC2)cc1-c1cnc(N2CCC2)nc1CN1C(=O)O[C@H](c2cc(C(F)(F)F)cc(C(F)(F)F)c2)[C@@H]1C [Example 193] | 105 nM
24 | COC(=O)c1cc(-c2ccc(OC)c(-c3ccc(N4CCC4)nc3CN3C(=O)O[C@H](c4cc(C(F)(F)F)cc(C(F)(F)F)c4)[C@@H]3C)c2)no1 [Example 28] | 80 nM
25 | COc1ccc(CCC(=O)O)cc1-c1ccc(N2CCC2)nc1CN1C(=O)O[C@H](c2cc(F)c(F)c(F)c2)[C@@H]1C [Example 98] | 223 nM
26 | COC(=O)Cc1ccc(OC)c(-c2ccc(N3CCC3)nc2CN2C(=O)O[C@H](c3cc(C(F)(F)F)cc(C(F)(F)F)c3)[C@@H]2C)c1 [Example 8] | 12 nM
27 | COc1ccc([C@H]2CC[C@H](C(=O)OC)CC2)cc1-c1ccc(N2CCC2)nc1CN1C(=O)O[C@H](c2cc(F)c(F)c(F)c2)[C@@H]1C [Example 35] | 439 nM
28 | COc1ccc(-c2ccc(C(=O)O)s2)cc1-c1ccc(N2CCC2)nc1CN1C(=O)O[C@H](c2cc(C(F)(F)F)cc(C(F)(F)F)c2)[C@@H]1C [Example 105] | 51 nM
29 | COC(=O)c1cnc(-c2ccc(OC)c(-c3ccc(N4CCC4)nc3CN3C(=O)O[C@H](c4cc(C(F)(F)F)cc(C(F)(F)F)c4)[C@@H]3C)c2)cn1 [Example 30] | 133 nM
30 | COc1ccc(CCC(=O)O)cc1-c1cnc(N2CC(F)C2)nc1CN1C(=O)O[C@H](c2cc(C(F)(F)F)cc(C(F)(F)F)c2)[C@@H]1C [Example 172] | 35 nM
31 | COc1ccc(C2C[C@H]2C(=O)O)cc1-c1cnc(N2CCC2)nc1CN1C(=O)O[C@H](c2cccc(C(F)(F)F)c2)[C@@H]1C (stereo partly shown) [Example 274] | 1620 nM
32 | COc1ccc(CC(=O)O)cc1-c1c(C)cc(N2CCC2)nc1CN1C(=O)O[C@H](c2cc(C(F)(F)F)cc(C(F)(F)F)c2)[C@@H]1C [Example 76] | 14 nM
33 | COc1ccc(CCc2ncc[nH]2)cc1-c1ccc(N2CCC2)nc1CN1C(=O)O[C@H](c2cc(C(F)(F)F)cc(C(F)(F)F)c2)[C@@H]1C [Example 268] | 91 nM
34 | COC(=O)[C@@H]1CC[C@@H](c2ccc(OC)c(-c3ccc(N4CCC4)nc3CN3C(=O)O[C@H](c4cc(C(F)(F)F)cc(C(F)(F)F)c4)[C@@H]3C)c2)C1 (racemic) [Example 214] | 8 nM
35 | COc1ccc(-c2cc(C(=O)O)on2)cc1-c1ccc(N2CCC2)nc1CN1C(=O)O[C@H](c2cc(C(F)(F)F)cc(C(F)(F)F)c2)[C@@H]1C [Example 93] | 18 nM
36 | COc1ccc(-n2ncc(C(=O)O)c2C(F)(F)F)cc1-c1c(C)cc(N2CCC2)nc1CN1C(=O)O[C@H](c2cc(C(F)(F)F)cc(C(F)(F)F)c2)[C@@H]1C [Example 285] | 4 nM
37 | COc1cc(F)c(CCC(=O)O)cc1-c1ccc(N2CC(F)(F)C2)nc1CN1C(=O)O[C@H](c2cc(C(F)(F)F)cc(C(F)(F)F)c2)[C@@H]1C [Example 65] | 24 nM
38 | COc1ccc([C@@H]2C[C@H]2C(=O)O)cc1-c1ccc(N2CC(F)(F)C2)nc1CN1C(=O)O[C@H](c2cc(C(F)(F)F)cc(C(F)(F)F)c2)[C@@H]1C [Example 66] | 8 nM
39 | COc1cc(F)c(-c2ccc(C(=O)O)cc2C)cc1-c1ccc(N2CCC2)nc1CN1C(=O)O[C@H](c2cc(F)c(F)c(F)c2)[C@@H]1C [Example 102] | 8 nM
40 | COc1ccc(-n2ncc(C(=O)O)c2C(F)(F)F)cc1-c1cnc(N2CC(F)(F)C2)nc1CN1C(=O)O[C@H](c2cc(C(F)(F)F)cc(C(F)(F)F)c2)[C@@H]1C [Example 191] | 9 nM
41 | COc1ccc(CCc2n(C)cc[n+]2C)cc1-c1ccc(N2CCC2)nc1CN1C(=O)O[C@H](c2cc(C(F)(F)F)cc(C(F)(F)F)c2)[C@@H]1C [Example 269, 2-(2-{3-[6-azetidin-1-yl-2-({(4S,5R)-5-[3,5-bis(trifluoromethyl)phenyl]-4-methyl-2-oxo-1,3-oxazolidin-3-yl}methyl)pyridin-3-yl]-4-methoxyphenyl}ethyl)-1,3-dimethyl-1H-imidazol-3-ium formate] | 175 nM
42 | COc1ccc(CCC(=O)O)cc1-c1cnc(N2CC(F)(F)C2)nc1CN1C(=O)O[C@H](c2cc(C(F)(F)F)cc(C(F)(F)F)c2)[C@@H]1C [Example 174] | 18 nM
43 | COc1ccc(C2C[C@H]2C(=O)O)cc1-c1cnc(N2CC(F)(F)C2)nc1CN1C(=O)O[C@H](c2cc(C(F)(F)F)cc(C(F)(F)F)c2)[C@@H]1C (stereo partly shown) [Example 158] | 21 nM
